PMC7408547, “Bivalent Inhibitor with Selectivity for Trimeric MMP-9 Amplifies Neutrophil Chemotaxis and Enables Functional Studies on MMP-9 Proteoforms” (Cells, 2020)
Values joined by “and” are separate entries in the source; they are usually repeats but may differ in a detail not shown here. Identical values can stand only once. Like-named read-outs stand apart in the source and are kept apart here.

Columns and labels:
U-87 cell line = assay: U-87 cell viability (LIVE/DEAD); type: cell-based; settings: up to a concentration of 20 µM; 17 h
Procedure: Toxicity of compounds 5 and 7 was evaluated in vitro on the U-87 cell line. Briefly, U-87 cells were seeded in 96-well plates (cat. No. 92096, TPP Techno Plastic Products, Trasadingen, Switzerland) at 2000 cells/well in DMEM FluoroBrite containing 10% FBS and incubated for 24 h. Cells were washed and further grown in DMEM FluoroBrite with 5% KnockOut™ Serum Replacement (Gibco, Waltham, MA, USA). Compounds 5 and 7 were added to the wells in a 1:2 dilution series starting at 20 µM and ending at 0.16 µM. To evaluate the effect of the compound on cell growth, confluence was determined every hour for 17h using the Incucyte® S3 Live-Cell Analysis System (Sartorius, Göttingen, Germany). Next, cells were stained with the LIVE/DEAD™ Viability/Cytotoxicity Kit for mammalian cells (Invitrogen, Carlsbad, CA, USA; cat. # L3224) and cell viability was evaluated. Data were normalized to the mean confluence of wells containing no inhibitors. To measure the stability of the compounds, fresh blood was collected from heathy mice by cardiac puncture with a heparin-coated needle and syringe and 30UI/mL heparin was added. Next, compound 5, compound 7 or vehicle (DMSO) was added to the blood at a final concentration of 500 µM and incubated at 37 °C. […] Background inhibition was subtracted and results were expressed as percentage inhibition.

MMP-14/MT1-MMP = target: T1, MMP-14/MT1-MMP (Homo sapiens, UniProt P50281); assay: MMP-14 OmniMMP peptide assay; type: biochemical
T1 construct: purchased R & D systems; host or cells: NS0 cells
Procedure: Compounds 5 and 7 were synthesized as previously reported. Full-length human proMMP-9 was produced by recombinant expression in Sf9 insect cells and purified by gelatin-Sepharose chromatography as previously described. Stable full-length proMMP-9 monomers and trimers were separated by glycerol gradient ultracentrifugation as previously described. ProMMP-9 mixture and the separated monomers and trimers were activated by incubation with the catalytic domain of MMP-3 (cat. No. 444217, Merck Millipore, Darmstadt, Germany) as previously described. Activation of proMMP-9 was confirmed by a band shift of ±10 kDa, corresponding to the removal of the auto-inhibitory propeptide domain and by detection of gelatinolytic activity with a previously described gelatin degradation assay. MMP-9 monomers and trimers purified from human neutrophils were purchased (Cat. No. 444,231 and 444232, Sigma-Aldrich, St. Louis, MO, USA). Examples of sample purities and activations can be found in Supplementary Figure S1. Recombinant human proMMP-2 (CHO cell-derived), proMMP-3 (NS0 cell-derived), proMMP-7 (NS0 cell-derived) and proMMP-8 (NS0 cell-derived) were purchased from R & D systems (Minneapolis, MN, USA), dissolved in assay buffer (150 mM NaCl, 5 mM CaCl2, 0.01% Tween-20, 50 mM Tris, pH 7.4) to a concentration of 100 µg/mL and activated by incubation with 1 mM p-aminophenylmercuric acetate for, respectively, 1h, 6h, 2h and 1h. Activation of MMPs was confirmed by a band shift of approximately 10 kDa, corresponding to the removal of the propeptide domain. MMP-14/MT1-MMP (NS0 cell-derived) was also purchased from R & D systems (Minneapolis, MN, USA) and activated by incubation with recombinant human furin (cat. No. 1503-SE-010, R & D systems, Minneapolis, MO, USA) in activation buffer (50 mM Tris, 1 mM CaCl2, 0.5% Brij-35, pH 9) for 1.5 h and activity was tested in assay buffer (50 mM Tris, 3 mM CaCl2, 1 µM ZnCl2, pH 8.5). […] ADAM17/TACE (Sf 21 (baculovirus)-derived, R & D systems, Minneapolis, MO, USA) was diluted and evaluated in 25 mM Tris, 2.5 μM ZnCl2, 0.005% Brij-35, pH 9.0. All stocks of the compounds were evaluated for the presence of endotoxin using the EndoZyme II assay (Hyglos bioMérieux, Bernried am Starnberger See, Germany). […]
To determine the inhibition of gelatinolytic activity, we used a previously optimized gelatin degradation assay. […] Next, dye-quenched gelatin (DQ™-gelatin, Invitrogen, Carlsbad, CA, USA) was added at a final concentration of 2.5 µg/mL and the increase in fluorescence over time was measured with the CLARIOstar microplate reader (BMG Labtech, Ortenberg, Germany). […] Proteolytic activity was determined by linear regression of the fluorescence curve and the percentage inhibition was calculated through comparison with the positive control (no inhibitors). […]

MMP-7 = target: T2, MMP-7 (Homo sapiens, UniProt P09237); assay: MMP-7 OmniMMP peptide assay; type: biochemical; settings: OmniMMP substrate peptide
T2 construct: purchased R & D systems; host or cells: NS0 cells
T2 sequence (P09237 95-267): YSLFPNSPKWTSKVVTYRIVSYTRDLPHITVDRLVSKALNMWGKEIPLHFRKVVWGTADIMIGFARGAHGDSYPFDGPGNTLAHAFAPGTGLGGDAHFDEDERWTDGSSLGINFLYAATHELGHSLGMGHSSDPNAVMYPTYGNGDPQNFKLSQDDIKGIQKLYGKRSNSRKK
Procedure: Compounds 5 and 7 were synthesized as previously reported. Full-length human proMMP-9 was produced by recombinant expression in Sf9 insect cells and purified by gelatin-Sepharose chromatography as previously described. Stable full-length proMMP-9 monomers and trimers were separated by glycerol gradient ultracentrifugation as previously described. ProMMP-9 mixture and the separated monomers and trimers were activated by incubation with the catalytic domain of MMP-3 (cat. No. 444217, Merck Millipore, Darmstadt, Germany) as previously described. […] ADAM17/TACE (Sf 21 (baculovirus)-derived, R & D systems, Minneapolis, MO, USA) was diluted and evaluated in 25 mM Tris, 2.5 μM ZnCl2, 0.005% Brij-35, pH 9.0. All stocks of the compounds were evaluated for the presence of endotoxin using the EndoZyme II assay (Hyglos bioMérieux, Bernried am Starnberger See, Germany). […]
To determine the inhibition of gelatinolytic activity, we used a previously optimized gelatin degradation assay. […] Next, dye-quenched gelatin (DQ™-gelatin, Invitrogen, Carlsbad, CA, USA) was added at a final concentration of 2.5 µg/mL and the increase in fluorescence over time was measured with the CLARIOstar microplate reader (BMG Labtech, Ortenberg, Germany). […]

[1] = target: T3, recombinant human MMP-9 trimers (Homo sapiens, UniProt P14780); assay: Fluorogenic peptide (OmniMMP) degradation assay, recombinant MMP-9 trimers; type: biochemical; settings: recombinant human MMP-9 (Sf9) tri
T3 construct: made in house; host or cells: Sf9 insect cells
Procedure: (§1) Compounds 5 and 7 were synthesized as previously reported. Full-length human proMMP-9 was produced by recombinant expression in Sf9 insect cells and purified by gelatin-Sepharose chromatography as previously described. Stable full-length proMMP-9 monomers and trimers were separated by glycerol gradient ultracentrifugation as previously described. ProMMP-9 mixture and the separated monomers and trimers were activated by incubation with the catalytic domain of MMP-3 (cat. No. 444217, Merck Millipore, Darmstadt, Germany) as previously described. Activation of proMMP-9 was confirmed by a band shift of ±10 kDa, corresponding to the removal of the auto-inhibitory propeptide domain and by detection of gelatinolytic activity with a previously described gelatin degradation assay. MMP-9 monomers and trimers purified from human neutrophils were purchased (Cat. No. 444,231 and 444232, Sigma-Aldrich, St. Louis, MO, USA). Examples of sample purities and activations can be found in Supplementary Figure S1. Recombinant human proMMP-2 (CHO cell-derived), proMMP-3 (NS0 cell-derived), proMMP-7 (NS0 cell-derived) and proMMP-8 (NS0 cell-derived) were purchased from R & D systems (Minneapolis, MN, USA), dissolved in assay buffer (150 mM NaCl, 5 mM CaCl2, 0.01% Tween-20, 50 mM Tris, pH 7.4) to a concentration of 100 µg/mL and activated by incubation with 1 mM p-aminophenylmercuric acetate for, respectively, 1h, 6h, 2h and 1h. Activation of MMPs was confirmed by a band shift of approximately 10 kDa, corresponding to the removal of the propeptide domain. MMP-14/MT1-MMP (NS0 cell-derived) was also purchased from R & D systems (Minneapolis, MN, USA) and activated by incubation with recombinant human furin (cat. No. 1503-SE-010, R & D systems, Minneapolis, MO, USA) in activation buffer (50 mM Tris, 1 mM CaCl2, 0.5% Brij-35, pH 9) for 1.5 h and activity was tested in assay buffer (50 mM Tris, 3 mM CaCl2, 1 µM ZnCl2, pH 8.5). Active human neutrophil elastase (NE) was purchased from Abcam (Cambridge, UK) and for activity assays of NE the assay buffer was replaced by 200 mM Tris, pH 8.8. ADAM17/TACE (Sf 21 (baculovirus)-derived, R & D systems, Minneapolis, MO, USA) was diluted and evaluated in 25 mM Tris, 2.5 μM ZnCl2, 0.005% Brij-35, pH 9.0. All stocks of the compounds were evaluated for the presence of endotoxin using the EndoZyme II assay (Hyglos bioMérieux, Bernried am Starnberger See, Germany). Endotoxin levels in all concentrated stocks (2.5 mg/mL) were below the accepted limit of 0.5 EU/mL.
(§2) To determine the inhibition of gelatinolytic activity, we used a previously optimized gelatin degradation assay. Activated MMP-9, activated MMP-2, neutrophil elastase or supernatants of stimulated neutrophils, were incubated with different concentrations of inhibitors and incubated for 30 min at 37 °C. Next, dye-quenched gelatin (DQ™-gelatin, Invitrogen, Carlsbad, CA, USA) was added at a final concentration of 2.5 µg/mL and the increase in fluorescence over time was measured with the CLARIOstar microplate reader (BMG Labtech, Ortenberg, Germany). For other MMPs, the OmniMMP substrate peptide (Mca-PLGL-Dpa-AR-NH2, cat. no. BML-P126-0001, Enzo Life Sciences, Farmingdale, NY, USA) was used at a final concentration of 2.5 µg/mL. For ADAM17 the fluorogenic peptide Mca-PLAQAV-Dpa-RSSSR-NH2 (ES003, R & D systems, Minneapolis, MO, USA) and for neutrophil elastase the fluorogenic substrate MeOSuc-AAPV-AMC (cat. no. 324740, Merck Millipore, Darmstadt, Germany) were used. Proteolytic activity was determined by linear regression of the fluorescence curve and the percentage inhibition was calculated through comparison with the positive control (no inhibitors). When testing supernatants from human neutrophils, the assay was performed in the presence of 20 µM neutrophil elastase inhibitor (Elastase Inhibitor IV, Calbiochem, Darmstadt, Germany).

[2] = target: T4, recombinant human MMP-9 mixture (± 70% monomers and ± 30% trimers) (Homo sapiens, UniProt P14780); assay: Gelatin degradation assay, recombinant MMP-9 mixture; type: biochemical; settings: recombinant human MMP-9 (Sf9) mix, best-fit value
T4 construct: made in house; host or cells: Sf9 insect cells
Procedure: as §1, §2

T4 sequence (P14780 107-707 limits assumed): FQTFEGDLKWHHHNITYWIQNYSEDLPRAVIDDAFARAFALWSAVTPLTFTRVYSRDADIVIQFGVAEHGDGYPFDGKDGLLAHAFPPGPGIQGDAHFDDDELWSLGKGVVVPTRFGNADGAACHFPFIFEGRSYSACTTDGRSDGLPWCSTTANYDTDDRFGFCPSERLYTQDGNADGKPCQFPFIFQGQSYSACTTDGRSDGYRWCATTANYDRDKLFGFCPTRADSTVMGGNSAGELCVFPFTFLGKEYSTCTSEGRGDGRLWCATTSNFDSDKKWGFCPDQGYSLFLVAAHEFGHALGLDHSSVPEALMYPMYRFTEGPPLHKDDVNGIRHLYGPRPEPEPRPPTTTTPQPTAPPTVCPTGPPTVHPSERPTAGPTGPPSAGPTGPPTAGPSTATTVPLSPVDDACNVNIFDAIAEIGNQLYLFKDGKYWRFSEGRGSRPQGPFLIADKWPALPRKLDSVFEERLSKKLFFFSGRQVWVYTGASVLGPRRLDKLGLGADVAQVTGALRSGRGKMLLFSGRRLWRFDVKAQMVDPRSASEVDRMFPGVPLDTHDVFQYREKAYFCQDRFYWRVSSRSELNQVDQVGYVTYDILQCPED
T3 sequence (P14780 107-707 limits assumed): as above

SMILES	cellular toxicity (cell viability of U-87 cells) (U-87 cell line)	IC50 (MMP-14/MT1-MMP)	IC50 (MMP-14/MT1-MMP; OmniMMP substrate peptide)	IC50 (MMP-7)	IC25 [1]	IC50 [1]	IC75 [1]	IC25 [2]	IC50 [2]	IC75 [2]
CC(C)[C@H](C(=O)O)N(CCNC(=O)c1cccc(C(=O)NCCN([C@@H](C(=O)O)C(C)C)S(=O)(=O)c2ccc(-c3ccccc3)cc2)c1)S(=O)(=O)c1ccc(-c2ccccc2)cc1 [Compound 7]	nor did they induce cellular toxicity	> 1000 nM	1080 nM	> 10000 nM	0.0017 nM	~0.1 nM and 0.1 nM	6.0 nM	28 nM	182 nM	627 nM
CC(C)[C@H](C(=O)O)N(CCNC(=O)c1ccccc1)S(=O)(=O)c1ccc(-c2ccccc2)cc1 [Compound 5]	nor did they induce cellular toxicity	> 1000 nM	14800 nM	> 10000 nM	237 nM	724 nM	2211 nM	359 nM	1410 nM	5509 nM
